Reference: publication PMC8204796 (ACS Pharmacology & Translational Science, 2021)

System: NPC1^I1061T patient-derived fibroblast cells (GM18453)
Experiment: LipidTox Red lipid droplet staining
Format: cell-based, human
Details: 10 μM, 48 h, vs DMSO

CC(=O)Nc1ccc(C(=O)Nc2ccccc2N)cc1 [CI-994]
Lipid droplet formation (LipidTox Red): increases lipid droplet formation
